Active and inactive are the calls of the source.
Columns and labels:
Estrogen receptor = target: T1, Estrogen receptor (Homo sapiens, UniProt P03372);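 also: potency for inhibiting coactivator peptide recruitment to the receptor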
T1 sequence (P03372 whole entry): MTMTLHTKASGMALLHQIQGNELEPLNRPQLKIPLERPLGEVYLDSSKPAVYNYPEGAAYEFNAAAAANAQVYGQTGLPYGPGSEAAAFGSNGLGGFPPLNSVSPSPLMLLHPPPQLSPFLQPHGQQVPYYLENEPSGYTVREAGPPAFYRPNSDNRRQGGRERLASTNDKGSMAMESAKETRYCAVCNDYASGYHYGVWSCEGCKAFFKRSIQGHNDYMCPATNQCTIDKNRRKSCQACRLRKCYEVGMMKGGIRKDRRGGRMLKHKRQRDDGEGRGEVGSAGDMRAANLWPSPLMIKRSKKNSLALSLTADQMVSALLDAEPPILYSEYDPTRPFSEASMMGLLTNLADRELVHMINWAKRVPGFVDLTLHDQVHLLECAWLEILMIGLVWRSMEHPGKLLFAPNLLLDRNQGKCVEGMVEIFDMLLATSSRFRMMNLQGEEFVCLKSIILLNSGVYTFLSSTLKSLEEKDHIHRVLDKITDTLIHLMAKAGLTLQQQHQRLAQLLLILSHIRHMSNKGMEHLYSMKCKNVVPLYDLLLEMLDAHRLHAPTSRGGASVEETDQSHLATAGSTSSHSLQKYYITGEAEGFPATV

Cytochrome P450 3A4 = Cytochrome P450 3A4 (Homo sapiens, UniProt P08684);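 also: CYP3A4 tested as one member of a cytochrome P450 panel screen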
Cytochrome P450 2C19 = Cytochrome P450 2C19 (Homo sapiens, UniProt P33261); assay: Cytochrome panel assay with activity outcomes. Panel member name: p450-cyp2c19 Compounds with AC50 equal or less than 10 uM are considered active; format: functional
Cytochrome P450 2D6 = Cytochrome P450 2D6 (Homo sapiens, UniProt P10635);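 also: CYP2D6 member of a cytochrome P450 panel assay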
Cytochrome P450 1A2 = target: T2, Cytochrome P450 1A2 (Homo sapiens, UniProt P05177);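 also: PubChem cytochrome P450 panel assay, CYP1A2 panel member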
T2 sequence (P05177 whole entry): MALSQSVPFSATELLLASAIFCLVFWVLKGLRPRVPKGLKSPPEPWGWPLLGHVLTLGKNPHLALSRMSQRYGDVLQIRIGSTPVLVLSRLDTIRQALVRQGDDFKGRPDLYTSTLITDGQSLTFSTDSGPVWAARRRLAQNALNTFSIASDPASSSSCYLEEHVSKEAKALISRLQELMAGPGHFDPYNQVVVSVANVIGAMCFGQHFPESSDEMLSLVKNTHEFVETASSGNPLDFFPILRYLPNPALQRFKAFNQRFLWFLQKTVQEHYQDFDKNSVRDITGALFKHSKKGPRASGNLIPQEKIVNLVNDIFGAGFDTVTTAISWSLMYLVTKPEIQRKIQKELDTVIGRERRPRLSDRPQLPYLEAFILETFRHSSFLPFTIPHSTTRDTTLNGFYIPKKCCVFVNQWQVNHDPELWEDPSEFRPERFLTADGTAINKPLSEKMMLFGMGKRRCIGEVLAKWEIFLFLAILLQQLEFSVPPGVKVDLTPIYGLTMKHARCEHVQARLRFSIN

Cytochrome P450 2C9 [1] = target: T3, Cytochrome P450 2C9 (Homo sapiens, UniProt P11712)
HEK293 [2] = assay: inhibition of NOD1-driven NF-kB reporter – cell-based, luminescence, uHTS, primary screen (AID 1578); format: functional; settings: Homo sapiens
HEK293 [3] = assay: cells; format: functional, cell-based; settings: Homo sapiens
HEK293 [4] = assay: cells; format: functional, cell-based; settings: Homo sapiens; remark: listed apart in the source
[5] = target: Nucleotide-binding oligomerization domain-containing protein 2 (Homo sapiens, UniProt Q9HC29); assay: inhibition of NOD2-driven NF-kB reporter – cell-based, luminescence, uHTS, HEK293 (AID 1566); format: functional
HEK293 [6] = assay: NOD2 signaling inhibitors in MDP-stimulated cells, cell-based, uHTS, luminescence (AID 2001); format: functional; settings: Homo sapiens
HEK293 [7] = assay: cells; format: functional, cell-based; settings: Homo sapiens; remark: listed apart in the source
[8] = target: Glucose-6-phosphate 1-dehydrogenase (Homo sapiens, UniProt P11413); assay: inhibition of Homo sapiens G6PD, dose series – biochemical, fluorescence, selectivity assay for P. falciparum G6PD inhibitor project, dose response (AID 504792); format: functional
Cytochrome P450 2C9 [9] = target: T3, Cytochrome P450 2C9; remark: listed apart in the source
Troponin, cardiac muscle = Troponin, cardiac muscle (Homo sapiens, UniProt P19429+P45379+P63316); assay: Fluorescence-based biochemical high throughput dose response assay for activators of the calcium sensitivity of cardiac Regulated Thin Filaments (RTF). [Related pubchem assays (depositor defined):AID493008, AID493018, AID504382, AID504383]; format: protein-complex assay
HEK293 [10] = assay: cells; settings: Homo sapiens
HEK293 [11] = assay: cells; settings: Homo sapiens; remark: listed apart in the source
[12] = decrease of insulin promoter-GFP reporter – imaging, high-content screening, mouse beta cells (AID 1628); format: functional; settings: MIN6
[13] = MIN6 cell viability loss – mouse insulinoma, cytotoxicity control, dose response (AID 2122); format: functional;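 also: confirmatory high-throughput counterscreen run to flag cytotoxic compounds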
[14] = target: T4, Carboxy-terminal domain RNA polymerase II polypeptide A small phosphatase 1 (Homo sapiens, UniProt Q9GZU7); assay: CTDSP1 inhibitors, concentration-response, biochemical, absorbance readout, ultra-high-throughput screen actives (AID 540297); format: functional
T4 sequence (Q9GZU7 whole entry): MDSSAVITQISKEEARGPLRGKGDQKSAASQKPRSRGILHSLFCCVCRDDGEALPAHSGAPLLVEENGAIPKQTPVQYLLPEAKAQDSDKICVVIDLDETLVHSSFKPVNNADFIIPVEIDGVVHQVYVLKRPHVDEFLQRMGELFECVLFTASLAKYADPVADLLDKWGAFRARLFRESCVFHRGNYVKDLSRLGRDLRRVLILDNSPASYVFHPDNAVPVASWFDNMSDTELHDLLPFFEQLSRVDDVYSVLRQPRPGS

[15] = luciferase reporter signal suppression in cells – H4 neuroglioma cells, luminescence, dose response (AID 1990); format: functional, cell-based
BJ [16] = assay: BJ-TERT fibroblast viability loss – cell-based, RAS-independent, luminescence, dose response (AID 1933); format: functional; settings: Homo sapiens
[17] = Luminescence Cell-Based Dose Response HTS to Identify Inhibitors of 5'UTR Stem-Loop Driven Prion Protein mRNA Translation in H4 Neuroglioblastoma Cells. [Related pubchem assays: 1827 (Project Summary), 1813 (Primary HTS)]; format: functional
[18] = alpha-synuclein stem-loop luciferase translation blockers – H4 neuroglioma cells, luminescence, confirmation (AID 1988); format: functional, cell-based
BJ [19] = assay: cells; format: functional, cell-based; settings: Homo sapiens
[20] = DRD fibroblast viability loss – cell-based, non-viral oncogenic, luminescence, dose response (AID 1934); format: functional; settings: Homo sapiens

In the case of `O=C1CC(c2ccc(F)cc2)Cc2nc(NCC3CCCO3)ncc21` (configuration not stated), the IC50 (Estrogen receptor) is reported as > 50 µM (not active) and the AC50 (Cytochrome P450 3A4) is reported as “inconclusive”.

For `CCCCCCCCCC[Si](C)(C)CCC(=O)N[C@@H](Cc1ccc(C)cc1)c1ccccc1`, the AC50 (Cytochrome P450 2C19) was “inconclusive”, the AC50 (Cytochrome P450 2D6) was 39.8 µM (inconclusive) and the AC50 (Cytochrome P450 1A2) was 31.6 µM (inconclusive). The AC50 (Cytochrome P450 2C9 [1]) was “inconclusive”.

With `COc1ccc(CCNC(=O)c2ccc3c(c2)N(Cc2ccccc2)CCS3)cc1OC` the EC50 (HEK293 [2]) was 6.99 µM (active), the IC50 (HEK293 [3]) was 8.65 µM (active) and the IC50 (HEK293 [4]) was > 20 µM (inactive). For the same compound, the EC50 [5] was > 20 µM (inactive), the IC50 (HEK293 [6]) was 7.53 µM (active) and the IC50 (HEK293 [7]) was > 20 µM (inactive).

For `CCNc1nc(NC(C)C)nc(NS(=O)(=O)c2ccc(Cl)cc2)n1`, the IC50 [8] was > 80 µM (inactive).

In the case of `CC1(C)CC(NC(=O)c2ccc3c(c2)OCO3)CC(C)(C)N1`, the AC50 (Cytochrome P450 2C9 [9]) is reported as 8.91 µM (inconclusive) and the AC50 (Cytochrome P450 3A4) is reported as “inconclusive”.

For `C/C(NN1CCCCC1c1cccnc1)=C1/C(=O)NC(=S)N(C2CCCCC2)C1=O` (configuration not stated), the EC50 (Troponin, cardiac muscle) was 14.9 µM (inactive), the EC50 (HEK293 [10]) was > 59.6 µM (inactive) and the EC50 (HEK293 [11]) was > 59.6 µM (inactive).

For `Cc1ccccc1-c1cc(N(C)C)ncn1`, the AC50 (Cytochrome P450 2D6) was 39.8 µM (inconclusive) and the AC50 (Cytochrome P450 3A4) was “inconclusive”.

For `Cc1nc2ccccn2c1C(=O)N=Nc1c(O)n(CCC(C)C)c2ccccc12`, the IC50 [12] was 1.67 µM (active) and the IC50 [13] was 2.72 µM (active).

In the case of `c1ccc2c3nc[nH]c(N4CCCC4)c-3nc2c1`, the IC50 [12] is reported as 3.72 µM (active) and the IC50 [13] is reported as 3.1 µM (active).

In the case of `CC1CCCC(C)N1C(=O)c1cc(-c2ccc(Cl)c(Cl)c2)on1` (configuration not stated), the AC50 (Cytochrome P450 2C9 [1]) is reported as “inconclusive”.

With `Cc1cc(C(=O)Nc2ccccc2C(=O)O)ccc1NC(=O)COc1ccccc1Cl` the EC50 (HEK293 [2]) was > 20 µM (inactive), the IC50 (HEK293 [3]) was > 20 µM (inactive) and the IC50 (HEK293 [4]) was > 20 µM (inactive). For the same compound, the EC50 [5] was 5.38 µM (active), the IC50 (HEK293 [6]) was > 20 µM (inactive) and the IC50 (HEK293 [7]) was > 20 µM (inactive). For the same compound, the IC50 [14] was 6.31 µM (active).

In the case of `O=C1C=C(c2ccccc2)C[C@H](c2cccs2)[C@H]1n1nnc([N+](=O)[O-])n1`, the EC50 [15] is reported as 6.52 µM (active), the EC50 (HEK293 [2]) is reported as 9.57 µM (active) and the EC50 (BJ [16]) is reported as 0.681 µM (active). For the same compound, the IC50 (HEK293 [3]) was > 20 µM (inactive), the EC50 [17] was 17.5 µM (active) and the EC50 [18] was 9.23 µM (active). The EC50 (BJ [19]) was 1.11 µM (active), the IC50 (HEK293 [4]) was > 20 µM (inactive) and the EC50 [5] was 11 µM (active). The IC50 (HEK293 [6]) was 9.37 µM (active), the IC50 (HEK293 [7]) was > 20 µM (inactive) and the EC50 [20] was 0.668 µM (active).

For `Cn1c(=O)c(-c2cccc(C#N)c2)nc2cnc(Oc3ccccc3)nc21`, the AC50 (Cytochrome P450 3A4) was “inconclusive”.

For `CCCC(C)Sc1nc2c(=S)n(C)c(=O)n(C)c2[nH]1` (configuration not stated), the EC50 (HEK293 [10]) was > 59.7 µM (inactive) and the EC50 (HEK293 [11]) was > 59.7 µM (inactive).

In the case of `O=C1C=CC(=O)N1c1ccc(-c2nc3ccccc3o2)cc1`, the IC50 [8] is reported as > 80 µM (inactive).

With `COc1ccc(NC(=O)c2ccc(-n3cccn3)nc2)c(OC)c1` the AC50 (Cytochrome P450 2C19; read-out: AC50) was 14.1 µM (inconclusive), the AC50 (Cytochrome P450 1A2) was 2.82 µM (inconclusive) and the AC50 (Cytochrome P450 2C9 [1]) was “inconclusive”.

In the case of `COc1ccc2c(c1[N+](=O)[O-])CCC/C2=N/OC(=O)c1cccc2ccccc12`, the AC50 (Cytochrome P450 2C9 [1]) is reported as “inconclusive”.
